Test [1] relates to cultured human mast cells (CHMC). Briefly: CHMC low cell density IgE activation: tryptase and LTC4 assays. It is filed as cell-based. Put shortly:
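Degranulation measured after 30 min anti-IgE challenge at 37° C of CHMC plated at 1000-1500 cells/well following 1 h preincubation. Readouts: LTC4 by ELISA on donor-specific diluted supernatants, and tryptase activity from a 30 min room-temperature substrate reaction.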

Test [2] shares this test system. Briefly: CHMC low cell density ionomycin activation: tryptase assay. It is filed as cell-based. Conditions: read-out: CHMC Ionomycin Tryptase.
The mark [3] stands for this setting: Homo sapiens, Mast cell, Low Density CHMC, anti-IgE activation, tryptase readout, read-out: CHMC anti-IgE Tryptase.
Setting [4] is: Homo sapiens, Mast cell, Low Density CHMC, ionomycin activation, tryptase readout.
The mark [5] stands for this setting: Low Density CHMC, anti-IgE activation, tryptase readout, read-out: CHMC anti-IgE Tryptase.
Where [6] appears, read: Low Density CHMC, ionomycin activation, tryptase readout.

On to `Oc1cccc(Nc2ncc(F)c(Nc3ccc4[nH]ccc4c3)n2)c1` [Compound R926932, 5-Fluoro-N2-(3-hydroxyphenyl)-N4-[(1H)-indol-5-yl]-2,4-pyrimidinediamine], for which the IC50 in test [1] (setting [3]) is 0.31 µM; in test [2] (setting [4]), above 10 µM.
As for `O=[N+]([O-])c1cccc(Nc2ncc(F)c(Nc3cccc([N+](=O)[O-])c3)n2)c1` [Compound R950160, N2,N4-Bis(3-nitrophenyl)-5-fluoro-2,4-pyrimidinediamine], the IC50 in test [1] (Homo sapiens, Mast cell, read-out: CHMC anti-IgE Tryptase) was 1 µM; in test [2] (Homo sapiens, Mast cell), above 10 µM.
`CC(=O)Nc1ccc(Nc2ncc(F)c(Nc3ccc(NC(C)=O)cc3)n2)cc1` [Compound R940222, N2,N4-Bis-(4-Acetamidophenyl)-5-fluoro-2,4-pyrimidinediamine]: the IC50 in test [1] (setting [3]) and in test [2] (setting [4]) was above 10 µM each time.
On to `CC(C)(C)OC(=O)Nc1cccc(Nc2ncc(F)c(Nc3cccc(NC(=O)OC(C)(C)C)c3)n2)c1` [Compound R950108, N2,N4-Bis[3-(tert-butoxycarbonylamino)phenyl]-5-fluoro-2,4-pyrimidinediamine], for which the figures for the IC50 in test [1] (setting [3]) and in test [2] (setting [4]) were 2.08 µM and above 10 µM, respectively.
Taken in the same sequence, the figures for `COc1ccc(OCCNc2ncc(F)c(Nc3ccc4c(c3)OCCO4)n2)cc1` [Compound R950204, N4-(3,4-Ethylenedioxyphenyl)-5-fluoro-N2-[(4-methoxyphenyloxy)ethyl]-2,4-pyrimidinediamine] were 6.29 µM and above 10 µM.
`COc1cc(-c2ccccc2)c(C)cc1Nc1ccnc(Nc2cc(C)c(-c3ccccc3)cc2OC)n1` [Compound R925808, N2,N4-Bis(2-methoxy-5-methyl-4-phenylphenyl)-2,4-pyrimidinediamine]: the IC50 in test [1] (setting [3]) and in test [2] (setting [4]) was above 10 µM in each case.
As for `Oc1ccc(Nc2ncc(F)c(Nc3ccc(O)c(F)c3)n2)cc1F` [Compound R926681, N2,N4-Bis(3-fluoro-4-hydroxyphenyl)-5-fluoro-2,4-pyrimidinediamine], the IC50 was 0.775 µM in test [1] (setting [3]) and above 10 µM in test [2] (setting [4]).
With `COc1ccc(Nc2ncc([N+](=O)[O-])c(Nc3ccc(OC)c(OC)c3)n2)cc1OC` [Compound R940089, N2,N4-Bis-(3,4-dimethoxypenyl)-5-nitro-2,4-pyrimidinediamine], the IC50 in test [1] (setting [5]) and in test [2] (setting [6]) was above 10 µM in each case.
Turning to `COC(=O)c1cc2cc(Nc3ncc(F)c(Nc4cccc(OC(C)C)c4)n3)ccc2o1` [Compound R926487, 5-Fluoro-N4-(3-isopropoxyphenyl)-N2-(2-methoxycarbonylbenzofuran-5-yl)-2,4-pyrimidinediamine], the IC50 stood at 1.25 µM in test [1] (Homo sapiens, Mast cell, Low Density CHMC, anti-IgE activation, LTC4 readout, read-out: CHMC anti-IgE LTC4); 0.554 µM in test [1] (setting [3]); 8.87 µM in test [2] (setting [4]).
As for `Fc1cnc(Nc2ccc3c(c2)OCCO3)nc1NCc1csc2ccc(Cl)cc12` [Compound R926721, N4-[(5-Chloro-1-benzothiophen-3-yl)methyl]-N2-(3,4-ethylenedioxyphenyl)-5-fluoro-2,4-pyrimidinediamine], the IC50 is 4.44 µM in test [1] (setting [3]) and above 10 µM in test [2] (setting [4]).
Taken in the same sequence, the figures for `COc1ccc(Nc2ncc(Br)c(Nc3ccc(OC)c(-c4ccccc4)c3)n2)cc1-c1ccccc1` [Compound R925802, N2,N4-Bis(4-methoxy-3-phenylphenyl)-5-bromo-2,4-pyrimidinediamine] were above 10 µM and above 10 µM.
Take `Oc1c(Cl)cc(Nc2ncc(F)c(Nc3cc(Cl)c(O)c(Cl)c3)n2)cc1Cl` [Compound R940215, N2,N4-Bis-(3,5-dichloro-4-hydroxyphenyl)-5-fluoro-2,4-pyrimidinediamine]: the IC50 is 0.845 µM in test [1] (setting [3]) and above 10 µM in test [2] (setting [4]).
Regarding `Cc1cnc(Nc2ccc3c(c2)OCCO3)nc1Nc1ccc2c(c1)OCCO2` [Compound R926242, N2,N4-Bis(3,4-ethylenedioxyphenyl)-5-methyl-2,4-pyrimidinediamine], the IC50 was 4.2 µM in test [1] (setting [3]) and above 10 µM in test [2] (setting [4]).
For the compound `COc1cc(Nc2ncc(F)c(Nc3ccc4c(c3)N=CCO4)n2)cc(OC)c1` [Compound R909245, N4-(1,4-Benzoxazin-6-yl)-N2-(3,5-dimethoxyphenyl)-5-fluoro-2,4-pyrimidinediamine], the IC50 was determined as 0.255 µM in test [1] (setting [3]) and 6.24 µM in test [2] (setting [4]).
Take `CNC(=O)c1cc(Nc2nc(NC)ncc2F)ccc1OC` [Compound R940304, 5-Fluoro-N4-(3-methylaminocarbonyl-4-methoxyphenyl)-N2-methyl-2,4-pyrimidinediamine]: the IC50 in test [1] (setting [3]) and in test [2] (setting [4]) was above 10 µM throughout.
`Nc1cc(Nc2ccnc(Nc3ccc(Nc4ccccc4)c(N)c3)n2)ccc1Nc1ccccc1` [Compound R950123, N2,N4-Bis[3-amino-4-(N-phenylamino)-phenyl]-2,4-pyrimidinediamine]: the IC50 in test [1] (setting [3]) was 3.25 µM; in test [2] (setting [4]), 8.45 µM.
Consider `CNC(=O)COc1cccc(Nc2ncc(F)c(Nc3ccc4c(c3)C(O)CCC4)n2)c1` (racemic) [Compound R926949, 5-Fluoro-N4-(1,2,3,4-tetrahydro-1-hydroxynaphthalen-7-yl)-N2-[3-[(N-methylamino)carbonylmethyleneoxy]phenyl]-2,4-pyrimidinediamine], for which the IC50 is 0.089 µM in test [1] (setting [5]) and above 10 µM in test [2] (setting [6]).
For `OCc1cccc(Nc2ncc(F)c(Nc3cccc(CO)c3)n2)c1` [Compound R925757, N2,N4-Bis(3-(hydroxymethyl)phenyl)-5-fluoro-2,4-pyrimidinediamine], the IC50 was 2.8 µM in test [1] (setting [3]) and above 10 µM in test [2] (setting [4]).
As to `OCCn1ncc2ccc(Nc3ncc(F)c(Nc4ccc5cnn(CCO)c5c4)n3)cc21` [Compound R935238, N2,N4-Bis[1-(2-hydroxyethyl)indazoline-6-yl]-5-fluoro-2,4-pyrimidinediamine], the IC50 is 1.85 µM in test [1] (setting [5]) and above 10 µM in test [2] (setting [6]).
Consider `COC(=O)C1Cc2cc(Nc3ncc(F)c(Nc4ccc(Cl)c(Cl)c4)n3)ccc2O1` (racemic) [Compound R927031, (±)-N4-(3,4-Dichlorophenyl)-N2-(2,3-dihydro-2-methoxycarbonylbenzofuran-5-yl)-5-fluoro-2,4-pyrimidinediamine], for which the IC50 was found to be 0.215 µM in test [1] (setting [3]) and 99 µM in test [2] (setting [4]).
Taken in the same sequence, the figures for `CC(C)(C)OC(=O)Nc1ccc(Nc2ncc(F)c(Nc3ccc(NC(=O)OC(C)(C)C)cc3)n2)cc1` [Compound R950120, N2,N4-Bis[4-(tert-butoxycarbonylamino)phenyl]-5-fluoro-2,4-pyrimidinediamine] were 3 µM and above 10 µM.
Taken in the same sequence, the figures for `CCOC(=O)C(Nc1ncc(C#N)c(NC(C(=O)OCC)C(C)C)n1)C(C)C` (stereo not drawn) [Compound R925814, N2,N4-Bis(1-ethoxycarbonyl-2-methylpropyl)-5-cyano-2,4-pyrimidinediamine] were above 10 µM and above 10 µM.
Turning to `CNC(=O)Cn1ncc2ccc(Nc3nc(Nc4ccc(OC(C)C)cc4)ncc3F)cc21` [Compound R935224, 5-Fluoro-N2-(4-isopropoxyphenyl)-N4-[1-(N-methylaminocarbonyl)methyl-indazoline-6-yl]-2,4-pyrimidinediamine], the IC50 is 4.58 µM in test [1] (setting [5]) and above 10 µM in test [2] (setting [6]).
For the compound `Cc1cc(Nc2ncc(F)c(Nc3ccc4c(c3)N=CCO4)n2)cc(Cl)c1O` [Compound R909255, N4-(1,4-Benzoxazin-6-yl)-N2-(3-chloro-4-hydroxy-5-methylphenyl)-5-fluoro-2,4-pyrimidinediamine], the IC50 was 0.244 µM in test [1] (setting [3]) and above 10 µM in test [2] (setting [4]).
Taken in the same sequence, the figures for `CCOC(=O)c1cnc(Nc2cccc(O)c2)nc1NOCc1ccccc1` [Compound R925824, N4-Benzyloxy-5-ethoxycarbonyl-N2-(3-hydroxyphenyl)-2,4-pyrimidinediamine] were above 10 µM and above 10 µM.
On to `CCOC(=O)c1cc2cc(Nc3ncc(F)c(Nc4ccc5c(c4)OCCO5)n3)ccc2[nH]1` [Compound R926476, N2-(2-Ethoxycarbonylindol-5-yl)-N4-(3,4-ethylenedioxyphenyl)-5-fluoro-2,4-pyrimidinediamine], for which the IC50 in test [1] (setting [3]) stood at 0.6 µM; in test [2] (setting [4]), 7.7 µM.
Taken in the same sequence, the figures for `Oc1cccc(Nc2nc(Nc3ccc4c(c3)OCC=N4)ncc2F)c1` [Compound R908706, N2-(1,4-Benzoxazin-7-yl)-5-fluoro-N4-(3-hydroxyphenyl)-2,4-pyrimidinediamine] were 0.445 µM and above 10 µM.
Taken in the same sequence, the figures for `CNC(=O)C1Cc2cc(Nc3ncc(F)c(Nc4ccc(F)c(F)c4)n3)ccc2O1` (racemic) [Compound R927035, (±)-N4-(3,4-Difluorophenyl)-5-fluoro-N2-[2,3-dihydro-2-(N-methylamino)carbonylbenzofuran-5-yl]-2,4-pyrimidinediamine] were 0.583 µM and above 10 µM.
Taken in the same sequence, the figures for `CC(C)Oc1cccc(Nc2ncc(F)c(Nc3cccc(N)c3)n2)c1` [Compound R950164, N4-(3-Aminophenyl)-5-fluoro-N2-(3-isopropoxyphenyl)-2,4-pyrimidinediamine] were 1.89 µM and above 10 µM.
`CCOC(=O)c1cnc(Nc2ccc(CC#N)cc2)nc1Nc1ccc(CC#N)cc1` [Compound R926319, N2,N4-Bis(4-cyanomethylphenyl)-5-ethoxycarbonyl-2,4-pyrimidinediamine]: the IC50 in test [1] (setting [3]) and in test [2] (setting [4]) was above 10 µM in each case.
For the compound `Fc1cnc(Nc2ccc3c(c2)OC(F)(F)O3)nc1Nc1ccc2c(c1)OCCO2` [Compound R926386, N2-(2,2-Difluorobenzodioxol-5-yl)-N4-(3,4-ethylenedioxyphenyl)-5-fluoro-2,4-pyrimidinediamine], the IC50 in test [1] (setting [3]) and in test [2] (setting [4]) was above 10 µM in each case.

The values are drawn from patent US10828301B2, “2,4-pyrimidinediamine compounds and their uses” (Rigel Pharmaceuticals, Inc, priority 2002, dated 2020).
